Data: PMC6943619, “Synthesis and Pharmacological Evaluation of Hybrids Targeting Opioid and Neurokinin Receptors” (Molecules, 2019)
Like-named read-outs stand apart in the source and are kept apart here. Where a SMILES comes first, the peptide text is derived from it. Bridges are numbered along the chain shown (N, C = ends). [ ]: non-standard residue; d: D form. Nle = CCCC[C@H](N)C(=O)O

Tests used:
human KOR = biological target: T1, human KOR (Homo sapiens, UniProt P41145); test: Calcium mobilization functional assay, agonist mode; assay type: cell-based; conditions: for KOR α ± SEM: efficacy (intrinsic activity), Emax relative to dynorphin A, mean ± SEM
T1 construct: expressed in transfected cells; host or cells: CHO cells (University of Ferrara), co-expressing Gαqi5
T1 sequence (P41145 whole entry): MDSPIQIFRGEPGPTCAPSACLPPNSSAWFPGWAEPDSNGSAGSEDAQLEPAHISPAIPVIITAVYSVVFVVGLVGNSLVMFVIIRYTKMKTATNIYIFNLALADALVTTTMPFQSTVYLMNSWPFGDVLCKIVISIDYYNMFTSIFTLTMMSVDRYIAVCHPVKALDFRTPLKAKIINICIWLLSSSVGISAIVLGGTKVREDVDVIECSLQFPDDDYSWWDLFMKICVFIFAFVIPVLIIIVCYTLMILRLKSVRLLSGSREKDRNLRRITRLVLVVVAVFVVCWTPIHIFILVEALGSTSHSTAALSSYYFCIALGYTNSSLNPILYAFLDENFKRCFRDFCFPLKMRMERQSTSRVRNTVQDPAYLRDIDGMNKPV

human MOR = biological target: T2, human MOR (Homo sapiens, UniProt P35372); test: as above; assay type: cell-based; conditions: CHO cells co-expressing human MOR and Gαqi5, n = 5; for EC50: Fluo-4 AM calcium signal, read-out: MOR pEC50 (CL95%) (converted); for MOR α ± SEM: efficacy (intrinsic activity), Emax relative to EM-2, mean ± SEM
T2 construct: expressed in transfected cells; host or cells: CHO cells (University of Ferrara), co-expressing Gαqi5
T2 sequence (P35372 whole entry): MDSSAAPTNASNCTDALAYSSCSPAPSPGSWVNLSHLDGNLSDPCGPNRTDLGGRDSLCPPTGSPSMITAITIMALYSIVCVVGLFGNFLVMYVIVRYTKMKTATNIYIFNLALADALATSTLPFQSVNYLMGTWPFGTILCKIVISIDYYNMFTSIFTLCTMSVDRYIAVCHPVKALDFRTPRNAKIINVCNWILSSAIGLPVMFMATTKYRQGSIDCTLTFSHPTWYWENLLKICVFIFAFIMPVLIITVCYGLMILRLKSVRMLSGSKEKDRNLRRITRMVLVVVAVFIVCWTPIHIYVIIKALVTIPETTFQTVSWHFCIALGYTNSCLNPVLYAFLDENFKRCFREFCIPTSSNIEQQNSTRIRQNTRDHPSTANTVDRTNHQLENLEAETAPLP

[1] = biological target: T3, human opioid receptor DOR (Homo sapiens, UniProt P41143); test: Radioligand binding assay, displacement of [3H]deltorphin-2; conditions: displacement of [3H]deltorphin-2 from membranes of CHO cells transfected with human DOR, 50 mM Tris/HCl pH 7.4, 0.5% BSA, peptidase inhibitors, 2 h at 25 °C, mean ± SEM, n ≥ 3
T3 construct: purchased PerkinElmer (Krakow, Poland); host or cells: CHO cell membranes
T3 sequence (P41143 whole entry): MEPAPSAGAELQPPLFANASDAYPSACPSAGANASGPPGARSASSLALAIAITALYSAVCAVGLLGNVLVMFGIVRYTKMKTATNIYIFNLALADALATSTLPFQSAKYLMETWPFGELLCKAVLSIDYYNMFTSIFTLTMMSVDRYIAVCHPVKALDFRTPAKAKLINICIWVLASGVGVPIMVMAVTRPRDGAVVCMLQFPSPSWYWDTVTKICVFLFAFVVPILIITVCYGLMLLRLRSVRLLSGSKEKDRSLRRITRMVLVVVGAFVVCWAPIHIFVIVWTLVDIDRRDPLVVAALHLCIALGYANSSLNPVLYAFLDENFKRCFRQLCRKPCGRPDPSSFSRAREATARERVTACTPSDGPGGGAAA
Protocol: A radioligand binding assay was performed to determine the opioid receptor (OR) binding affinities of the novel analogs using commercially available membranes of Chinese hamster ovary cells (CHO) transfected with human recombinant ORs. […] Tyr-[D-Lys-Phe-Phe-Asp]NH2 (1) was used as a reference opioid compound.
(§1) To determine the affinity of peptide analogs to respective receptors, competition binding experiments were performed, as described in detail elsewhere.
(§2) Commercial membranes of CHO cells stably expressing either human ORs or NK1 receptor were used. […] Membranes were incubated in a 0.5 mL volume of 50 mM Tris/HCl (pH = 7.4), 0.5% bovine serum albumin (BSA), with a number of peptidase inhibitors (bacitracin, bestatin, captopril) and various concentrations of radioligands for 2 h at 25 °C.
(§3) The pharmacological terminology adopted in this paper is consistent with International Union of Basic and Clinical Pharmacology (IUPHAR) recommendations. Concentration–response curves were analyzed by nonlinear regression using Graph Pad Prism 6.0 (La Jolla, CA, USA). […] Concentration–response curves were fitted with the four-parameter logistic nonlinear regression model (1) Effect=baseline+Emax−baseline/1+10^logEC50−X·n where X is the agonist concentration and n is the Hill coefficient. Ligand efficacy was expressed as intrinsic activity (α) calculated as a ratio of the peptide Emax to the Emax of the standard agonist (Supplementary Materials, Figure S7). […] All statistical analyses were performed using Graph Pad Prism 6.0 (La Jolla, CA, USA). Differences between groups were analyzed with one-way ANOVA and a post hoc multiple comparison by the Student–Newman–Keuls test. A probability level of 0.05 or smaller was used to indicate statistical significance.

[2] = biological target: T4, human opioid receptor MOR (Homo sapiens, UniProt P35372); test: Radioligand binding assay, displacement of [3H]DAMGO; conditions: displacement of [3H]DAMGO from membranes of CHO cells transfected with human MOR, 50 mM Tris/HCl pH 7.4, 0.5% BSA, peptidase inhibitors, 2 h at 25 °C, mean ± SEM, n ≥ 3
T4 construct: purchased PerkinElmer (Krakow, Poland); host or cells: CHO cell membranes
T4 sequence (P35372 whole entry): as the sequence (P35372 whole entry) above
Protocol: (§4) A radioligand binding assay was performed to determine the opioid receptor (OR) binding affinities of the novel analogs using commercially available membranes of Chinese hamster ovary cells (CHO) transfected with human recombinant ORs. [^3H]DAMGO, [^3H]deltorphin-2, and [^3H]U-69593 were used as the radioligands for MOR, DOR, and KOR, respectively. Tyr-[D-Lys-Phe-Phe-Asp]NH2 (1) was used as a reference opioid compound. […] None of them acquired significant DOR affinity.
as §1
(§5) Commercial membranes of CHO cells stably expressing either human ORs or NK1 receptor were used. [^3H]DAMGO, [^3H]deltorphin-2, and [^3H]U-69593 were employed as the competing radioligands for MOR, DOR, and KOR, respectively, while [^3H][Sar^9, Met(O2)^11]SP was utilized for the NK1 receptor. Membranes were incubated in a 0.5 mL volume of 50 mM Tris/HCl (pH = 7.4), 0.5% bovine serum albumin (BSA), with a number of peptidase inhibitors (bacitracin, bestatin, captopril) and various concentrations of radioligands for 2 h at 25 °C. Nonspecific binding was assessed in the presence of […] naloxone for ORs or SP for NK1 receptor.
(§6) The pharmacological terminology adopted in this paper is consistent with International Union of Basic and Clinical Pharmacology (IUPHAR) recommendations. Concentration–response curves were analyzed by nonlinear regression using Graph Pad Prism 6.0 (La Jolla, CA, USA). […]. […] Concentration–response curves were fitted with the four-parameter logistic nonlinear regression model (1) Effect=baseline+Emax−baseline/1+10^logEC50−X·n where X is the agonist concentration and n is the Hill coefficient. Ligand efficacy was expressed as intrinsic activity (α) calculated as a ratio of the peptide Emax to the Emax of the standard agonist (Supplementary Materials, Figure S7). […]. All statistical analyses were performed using Graph Pad Prism 6.0 (La Jolla, CA, USA). Differences between groups were analyzed with one-way ANOVA and a post hoc multiple comparison by the Student–Newman–Keuls test. A probability level of 0.05 or smaller was used to indicate statistical significance.

human NK1 [3] = biological target: T5, human NK1 (Homo sapiens, UniProt P25103); test: Calcium mobilization functional assay, agonist mode, CHONK1 cells; assay type: cell-based; design: expressed in transfected cells; host or cells: CHO cells (gift of Prof. T. Costa, ISS, Rome); conditions: for NK1 α ± SEM: efficacy (intrinsic activity), Emax relative to SP, CHONK1 cells
T5 sequence (P25103 whole entry): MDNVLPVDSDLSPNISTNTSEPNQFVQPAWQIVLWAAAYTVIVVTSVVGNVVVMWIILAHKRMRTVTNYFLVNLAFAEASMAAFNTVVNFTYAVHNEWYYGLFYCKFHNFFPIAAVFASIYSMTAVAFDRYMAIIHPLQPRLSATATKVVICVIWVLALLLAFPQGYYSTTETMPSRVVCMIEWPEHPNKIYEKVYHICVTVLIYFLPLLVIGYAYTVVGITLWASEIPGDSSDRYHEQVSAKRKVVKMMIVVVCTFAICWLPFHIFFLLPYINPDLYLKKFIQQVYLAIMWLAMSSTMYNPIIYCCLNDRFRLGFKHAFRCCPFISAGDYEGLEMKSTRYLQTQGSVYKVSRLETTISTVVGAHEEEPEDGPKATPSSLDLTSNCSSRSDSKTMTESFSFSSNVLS

[4] = biological target: T6, human opioid receptor KOR (Homo sapiens, UniProt P41145); test: Radioligand binding assay, displacement of [3H]U-69593; conditions: displacement of [3H]U-69593 from membranes of CHO cells transfected with human KOR, 50 mM Tris/HCl pH 7.4, 0.5% BSA, peptidase inhibitors, 2 h at 25 °C, mean ± SEM, n ≥ 3
T6 construct: purchased PerkinElmer (Krakow, Poland); host or cells: CHO cell membranes
T6 sequence (P41145 whole entry): as the sequence (P41145 whole entry) above
Protocol: as §4, §1, §5, §6

human NK1 [5] = biological target: T5, human NK1; test: Radioligand binding assay, displacement of [3H][Sar9, Met(O2)11]SP; design: purchased PerkinElmer (Krakow, Poland); host or cells: CHO cell membranes; conditions: displacement of [3H][Sar9, Met(O2)11]SP from membranes of CHO cells transfected with human NK1 receptor; 50 mM Tris/HCl pH 7.4, 0.5% BSA, peptidase inhibitors, 2 h at 25 °C; mean ± SEM, n ≥ 3; SEM
Protocol: The binding assay was also used to examine the affinity of the synthesized hybrids for NK1 in commercial membranes of CHO cells stably expressing human NK1.
as §1, §2, §3

DOR = biological target: T7, DOR (Homo sapiens, UniProt P41143); test: Calcium mobilization functional assay, agonist mode; assay type: cell-based; conditions: CHO cells co-expressing DOR and GαqG66Di5, n = 5; for EC50: read-out: DOR pEC50 (CL95%) (converted); for DOR α ± SEM: efficacy (intrinsic activity), Emax relative to DPDPE, mean ± SEM
T7 construct: expressed in transfected cells; host or cells: CHO cells (University of Ferrara), co-expressing GαqG66Di5
T7 sequence (P41143 whole entry): as the sequence (P41143 whole entry) above

human NK1 [6] = biological target: T5, human NK1; test: Calcium mobilization assay, inhibition response experiments against SP; assay type: cell-based; design: expressed in transfected cells; host or cells: CHO cells (gift of Prof. T. Costa, ISS, Rome)
Protocol: Following aspiration of the loading solution and a washing step, serial dilutions of peptide stock solutions were added.
as §3

[7] = CHO cells co-expressing human KOR and Gαqi5, Fluo-4 AM calcium signal, n = 5, read-out: KOR pEC50 (CL95%) (converted)
[8] = CHO cells co-expressing human KOR and Gαqi5, n = 5

SMILES | EC50 (human KOR; [7]) [nM] | KOR α ± SEM (human KOR; [8]) | EC50 (human MOR) [nM] | MOR α ± SEM (human MOR; SEM) | Ki [1] [nM] | Ki [2] [nM] | EC50 (human NK1 [3]) [nM] | NK1 α ± SEM (human NK1 [3]; N = 5, SEM) | Ki [4] [nM] | Ki (human NK1 [5]) [nM] | EC50 (DOR; Fluo-4 AM calcium signal) [nM] | DOR α ± SEM (DOR; SEM) | EC50 (human KOR) [nM] | MOR α ± SEM (human MOR) | Kb (human NK1 [6]) [nM] | NK1 pEC50 (CL95%) (human NK1 [3]; CHO cells expressing human NK1 (CHONK1), Fluo-4 AM calcium signal, N = 5) | NK1 α ± SEM (human NK1 [3]; N = 5) | DOR pEC50 (CL95%) (DOR; Fluo-4 AM calcium signal) | DOR α ± SEM (DOR)
CSCC[C@H](NC(=O)[C@H](CC(C)C)NC(=O)CNC(=O)[C@H](Cc1ccccc1)NC(=O)[C@@H]1CC(=O)NCCCC[C@@H](NC(=O)[C@@H](N)Cc2ccc(O)cc2)C(=O)N[C@@H](Cc2ccccc2)C(=O)N[C@@H](Cc2ccccc2)C(=O)N1)C(N)=O [compound 6, Tyr-[D-Lys-Phe-Phe-Asp]-Phe-Gly-Leu-Met-NH2] (H-Y[dK]FFDFGLM-NH2; lactam 2-5) | 4.68 | 0.92 ± 0.02 | 9.12 | 0.81 ± 0.05 | 28.7 ± 1.01 | 2.98 ± 0.14 | 776 | 1.03 ± 0.05 | 2.7 ± 0.12 | 2330 ± 189 | 151 | 0.65 ± 0.05 |  |  |  |  |  |  | 
CSCC[C@H](NC(=O)[C@H](CC(C)C)NC(=O)CNC(=O)[C@H](Cc1ccccc1)NC(=O)[C@H](Cc1ccccc1)NC(=O)[C@@H]1CC(=O)NCCCC[C@@H](NC(=O)[C@@H](N)Cc2ccc(O)cc2)C(=O)N[C@@H](Cc2ccccc2)C(=O)N[C@@H](Cc2ccccc2)C(=O)N1)C(N)=O [compound 5, Tyr-[D-Lys-Phe-Phe-Asp]-Phe-Phe-Gly-Leu-Met-NH2] (H-Y[dK]FFDFFGLM-NH2; lactam 2-5) |  | 0.64 ± 0.04 |  | 0.86 ± 0.03 | 96.6 ± 3.8 | 4.9 ± 0.34 | 15.8 | 1.11 ± 0.05 | 28.3 ± 1.71 | 51.6 ± 4.2 | 389 | 0.50 ± 0.01 | 67.6 |  |  |  |  |  | 
CCCC[C@H](NC(=O)[C@H](CC(C)C)NC(=O)[C@@H](Cc1c[nH]c2ccccc12)NC(=O)[C@H](Cc1ccccc1)NC(=O)[C@@H](Cc1c[nH]c2ccccc12)NC(=O)[C@@H]1CC(=O)NCCCC[C@@H](NC(=O)[C@@H](N)Cc2ccc(O)cc2)C(=O)N[C@@H](Cc2ccccc2)C(=O)N[C@@H](Cc2ccccc2)C(=O)N1)C(N)=O [compound 3, Tyr-[D-Lys-Phe-Phe-Asp]-D-Trp-Phe-D-Trp-Leu-Nle-NH2] (H-Y[dK]FFD[dW]F[dW]L[Nle]-NH2; lactam 2-5) | 3.55 | 1.05 ± 0.05 | 174 | 0.72 ± 0.04 | 213 ± 6.31 | 28.2 ± 1.45 |  |  | 2.85 ± 0.44 | 12.8 ± 0.92 |  |  |  | 0.72 | 23.4 | Inactive | Inactive | Crc incomplete | Crc incomplete
CSCC[C@H](NC(=O)[C@H](CC(C)C)NC(=O)CNC(=O)[C@@H]1CC(=O)NCCCC[C@@H](NC(=O)[C@@H](N)Cc2ccc(O)cc2)C(=O)N[C@@H](Cc2ccccc2)C(=O)N[C@@H](Cc2ccccc2)C(=O)N1)C(N)=O [compound 7, Tyr-[D-Lys-Phe-Phe-Asp]-Gly-Leu-Met-NH2] (H-Y[dK]FFDGLM-NH2; lactam 2-5) | 1.58 | 1.06 ± 0.06 | 2.04 | 0.85 ± 0.05 | 113 ± 4.6 | 1.14 ± 0.21 | 2090 | 0.99 ± 0.08 | 0.89 ± 0.04 | 8130 ± 724 | 363 | 0.38 ± 0.04 |  |  |  |  |  |  | 
